# pIC50, pKi: −log10 of the molar value. Structures can show the parent of a compound that is named as a salt. Where two headings read alike, the source gives them in different places.
# Key:
# [1] = target: human CDK4 and genetically truncated (1-264) cyclin D3 (Homo sapiens, UniProt P11802); assay: Inhibition of CDK4/Cyclin D Retinoblastoma Kinase Activity; assay type: biochemical; conditions: for pKi: apparent Ki, CDK4/truncated cyclin D3, Rb fragment substrate, 25 μM ATP
# Method in brief: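 Apparent Ki values come from competitive or competitive tight-binding inhibition fits of background-corrected 32P/33P incorporation into His-tagged Rb fragment (386-928), captured on nitrocellulose. Reaction: 5 nM insect-cell-expressed human CDK4 with cyclin D3 (1-264), 25 μM ATP, pH 7.4 HEPES, 2% DMSO, 30° C., 20 min, extended to 60 min for tight-binding inhibitors.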
# CDK2/Cyclin A = CDK2/Cyclin A (Homo sapiens, UniProt P24941); assay: Inhibition of CDK2/Cyclin A Retinoblastoma Kinase Activity; assay type: biochemical; conditions: for pKi: apparent Ki, CDK2/proteolyzed cyclin A, Rb fragment substrate, 25 μM ATP; for CDK2 % Inhibition At 0.03 μM: Table 2
# Method in brief: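 Radiometric filter-binding readout of phosphate transfer to an Rb substrate fragment by purified CDK2/truncated cyclin A at 10 or 19 nM. Run at pH 7.4 with 25 μM ATP, 30 °C, 60–75 min, linear rates; background without enzyme subtracted, Ki from competitive-inhibition models.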
# HCT-116 cell line = assay: Inhibition of cell growth, tetrazolium salt (MTT) assay; assay type: cell-based; conditions: for HCT-116 % Inhibition at 0.25 μM: 0.25 μM compound; for pIC50: Homo sapiens, HCT-116, 120 h, MTT, three to five days, read-out: HCT-116 IC50
# Method in brief: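 McCoy's 5A cultures; 4 h pre-incubation; compound dilutions in 0.5% v/v DMSO; 3–5 d, 37° C, 5% CO2; MTT 0.2 mg/mL final, 4 h; formazan dissolved in DMSO, A540; vs 0.5% DMSO vehicle.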
# [2] = 0.1 μM compound, HCT-116, Table 4
# Sequence of human CDK4 and genetically truncated (1-264) cyclin D3 (P11802 whole entry, the tested form may be a part): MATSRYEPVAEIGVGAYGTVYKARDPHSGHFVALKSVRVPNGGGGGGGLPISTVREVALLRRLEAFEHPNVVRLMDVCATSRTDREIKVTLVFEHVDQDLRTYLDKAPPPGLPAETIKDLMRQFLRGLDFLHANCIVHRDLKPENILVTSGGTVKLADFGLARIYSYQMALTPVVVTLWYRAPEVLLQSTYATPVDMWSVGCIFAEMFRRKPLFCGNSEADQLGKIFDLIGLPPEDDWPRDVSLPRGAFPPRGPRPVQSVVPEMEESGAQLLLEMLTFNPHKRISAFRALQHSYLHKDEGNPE
# Sequence of human CDK4 and genetically truncated (1-264) cyclin D3 (P30281 1-264 partner): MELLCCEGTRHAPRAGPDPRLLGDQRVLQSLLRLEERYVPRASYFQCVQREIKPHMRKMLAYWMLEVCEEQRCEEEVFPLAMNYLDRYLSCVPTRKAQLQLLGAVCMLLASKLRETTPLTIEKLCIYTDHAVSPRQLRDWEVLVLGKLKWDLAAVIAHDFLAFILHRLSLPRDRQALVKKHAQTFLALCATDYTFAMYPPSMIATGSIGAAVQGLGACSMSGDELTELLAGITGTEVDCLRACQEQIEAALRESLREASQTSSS
smiles,measurement,setting,value
Nc1nc(NC2CCN(S(=O)(=O)Cc3ccccc3)CC2)sc1C(=O)c1c(F)cccc1F [Example P25],CDK4 % Inhibition at 0.03 μM,"[1]; 0.03 μM compound, Table 3",82%
same,CDK2 % Inhibition at 0.03 μM,"CDK2/Cyclin A; 0.03 μM compound, Table 3",62%
same,HCT-116 % Inhibition at 0.1 μM,"HCT-116 cell line; 0.1 μM compound, HCT-116, Table 3",8%
same,HCT-116 % Inhibition at 0.25 μM,"HCT-116 cell line; HCT-116, Table 3",33%
COc1ccc(C(=O)N2CCC(Nc3nc(N)c(C(=O)c4c(F)cccc4F)s3)CC2)cc1OC [Example Q21],CDK4 % Inhibition at 0.03 μM,"[1]; 0.03 μM compound, Table 4",14%
same,CDK2 % Inhibition at 0.03 μM,"CDK2/Cyclin A; 0.03 μM compound, Table 4",−23%
same,HCT-116 % Inhibition at 0.1 μM,HCT-116 cell line; [2],16%
same,HCT-116 % Inhibition at 0.25 μM,"HCT-116 cell line; HCT-116, Table 4",51%
Cc1oc(-c2ccccc2)cc1C(=O)N1CCC(Nc2nc(N)c(C(=O)c3c(F)cccc3F)s2)CC1 [Example R77],CDK4 % Inhibition at 0.03 μM,[1]; at 0.03 μM,15%
same,CDK2 % Inhibition at 0.03 μM,CDK2/Cyclin A; at 0.03 μM,19%
same,HCT-116 % Inhibition at 0.1 μM,"HCT-116 cell line; HCT-116 cells, at 0.1 μM",0%
same,HCT-116 5 Inhibition at 0.25 μM,HCT-116 cell line; HCT-116 cells,44
N#Cc1cccc(C(=O)N2CCC(Nc3nc(N)c(C(=O)c4c(F)cccc4F)s3)CC2)c1 [Example R129],CDK4 % Inhibition at 0.03 μM,[1]; at 0.03 μM,62%
same,CDK2 % Inhibition at 0.03 μM,CDK2/Cyclin A; at 0.03 μM,41%
same,HCT-116 % Inhibition at 0.1 μM,"HCT-116 cell line; HCT-116 cells, at 0.1 μM",0%
same,HCT-116 5 Inhibition at 0.25 μM,HCT-116 cell line; HCT-116 cells,33
Cc1onc(-c2ccccc2)c1C(=O)N1CCC(Nc2nc(N)c(C(=O)c3c(F)cccc3F)s2)CC1 [Example R21],CDK4 % Inhibition at 0.03 μM,[1]; at 0.03 μM,38%
same,CDK2 % Inhibition at 0.03 μM,CDK2/Cyclin A; at 0.03 μM,2%
same,HCT-116 % Inhibition at 0.1 μM,"HCT-116 cell line; HCT-116 cells, at 0.1 μM",0%
same,HCT-116 5 Inhibition at 0.25 μM,HCT-116 cell line; HCT-116 cells,47
"Nc1nc(NC2CCN(S(=O)(=O)CCCN3CC=CCC3)CC2)sc1C(=O)c1c(F)cccc1F [Example K11, 1-(4-Amino-2-{1-[3-(3,6-dihydro-2H-pyridin-1-yl)propane-1-sulfonyl]-piperidin-4-ylamino}-thiazol-5-yl)-1-(2,6-difluoro-phenyl)-methanone.]",pKi,[1],8.74
same,pKi,CDK2/Cyclin A,8.54
same,pIC50,HCT-116 cell line; first HCT-116 column (c4),6.89
same,pIC50,HCT-116 cell line; second HCT-116 column (c5),5.89
Nc1nc(NC2CCN(C(=O)Nc3ccccc3)CC2)sc1C(=O)c1c(F)cccc1F [Example O3],CDK4 % Inhibition at 0.03 μM,"[1]; 0.03 μM compound, Table 2",6%
same,CDK2 % Inhibition At 0.03 μM,CDK2/Cyclin A; 0.03 μM compound,34%
same,HCT-116 % Inhibition at 0.25 μM,"HCT-116 cell line; HCT-116, Table 2",0%
"Nc1nc(NC2CCN(S(=O)(=O)CCCN3CCSCC3)CC2)sc1C(=O)c1c(F)cccc1F [Example K13, 1-(4-Amino-2-{1-[3-(thiomorpholin-4-yl)propane-1-sulfonyl]-piperidin-4-ylamino}-thiazol-5-yl)-1-(2,6-difluoro-phenyl)-methanone.]",pKi,[1],8.60
same,pKi,CDK2/Cyclin A,8.41
same,pIC50,HCT-116 cell line; first HCT-116 column (c4),6.41
same,pIC50,HCT-116 cell line; second HCT-116 column (c5),5.89
C[Si](C)(C)NC(=O)N1CCC(Nc2nc(N)c(C(=O)c3c(F)cccc3F)s2)CC1 [Example O2],CDK4 % Inhibition at 0.03 μM,"[1]; 0.03 μM compound, Table 2",6%
same,CDK2 % Inhibition At 0.03 μM,CDK2/Cyclin A; 0.03 μM compound,34%
same,HCT-116 % Inhibition at 0.25 μM,"HCT-116 cell line; HCT-116, Table 2",0%
COc1ccc(O)c(C(=O)N2CCC(Nc3nc(N)c(C(=O)c4c(F)cccc4F)s3)CC2)c1 [Example R121],CDK4 % Inhibition at 0.03 μM,[1]; at 0.03 μM,60%
same,CDK2 % Inhibition at 0.03 μM,CDK2/Cyclin A; at 0.03 μM,57%
same,HCT-116 % Inhibition at 0.1 μM,"HCT-116 cell line; HCT-116 cells, at 0.1 μM",0%
same,HCT-116 5 Inhibition at 0.25 μM,HCT-116 cell line; HCT-116 cells,37
"Nc1nc(NC2CCN(S(=O)(=O)c3ccc(OCCNC4CC4)nc3)CC2)sc1C(=O)c1c(F)cccc1F [Example H21, (4-Amino-2-{1-[6-(2-cyclopropylamino-ethoxy)-3-sulfonyl]-piperidin-4-ylamino}-thiazol-5-yl)-(2,6-difluoro-phenyl)-methanone Hydrochloride Salt]",pKi,[1],9.55
same,pKi,CDK2/Cyclin A,8.82
same,pIC50,HCT-116 cell line; first HCT-116 column (c4),6.96
same,pIC50,HCT-116 cell line; second HCT-116 column (c5),5.82
Nc1nc(NC2CCN(C(=O)COc3ccccc3)CC2)sc1C(=O)c1c(F)cccc1F [Example Q41],CDK4 % Inhibition at 0.03 μM,"[1]; 0.03 μM compound, Table 4",36%
same,CDK2 % Inhibition at 0.03 μM,"CDK2/Cyclin A; 0.03 μM compound, Table 4",24%
same,HCT-116 % Inhibition at 0.1 μM,HCT-116 cell line; [2],3%
same,HCT-116 % Inhibition at 0.25 μM,"HCT-116 cell line; HCT-116, Table 4",15%
CC(C)c1ccccc1NC(=O)N1CCC(Nc2nc(N)c(C(=O)c3c(F)cccc3F)s2)CC1 [Example O40],CDK4 % Inhibition at 0.03 μM,"[1]; 0.03 μM compound, Table 2",6%
same,CDK2 % Inhibition At 0.03 μM,CDK2/Cyclin A; 0.03 μM compound,30%
same,HCT-116 % Inhibition at 0.25 μM,"HCT-116 cell line; HCT-116, Table 2",3%
CC(Oc1ccccc1)C(=O)N1CCC(Nc2nc(N)c(C(=O)c3c(F)cccc3F)s2)CC1 (centres unmarked) [Example R9],CDK4 % Inhibition at 0.03 μM,[1]; at 0.03 μM,19%
same,CDK2 % Inhibition at 0.03 μM,CDK2/Cyclin A; at 0.03 μM,−15%
same,HCT-116 % Inhibition at 0.1 μM,"HCT-116 cell line; HCT-116 cells, at 0.1 μM",5%
same,HCT-116 5 Inhibition at 0.25 μM,HCT-116 cell line; HCT-116 cells,37
